Consider 19 compounds from US20230026271A1, “Piperazine Compounds for Inhibiting CPS1” (Eisai R&D Management Co., Ltd., priority 2019, published 2023).

The target of the assay is T1, CPS1 (Homo sapiens, UniProt P31327).
T1 construct: The full length, human CPS1 gene was cloned into pFastBac HTA; His6 (from the pFastBac HTA vector); made in house; host or cells: SF21 insect cells (baculovirus, Bac-to-bac)
T1 sequence (P31327 39-1500): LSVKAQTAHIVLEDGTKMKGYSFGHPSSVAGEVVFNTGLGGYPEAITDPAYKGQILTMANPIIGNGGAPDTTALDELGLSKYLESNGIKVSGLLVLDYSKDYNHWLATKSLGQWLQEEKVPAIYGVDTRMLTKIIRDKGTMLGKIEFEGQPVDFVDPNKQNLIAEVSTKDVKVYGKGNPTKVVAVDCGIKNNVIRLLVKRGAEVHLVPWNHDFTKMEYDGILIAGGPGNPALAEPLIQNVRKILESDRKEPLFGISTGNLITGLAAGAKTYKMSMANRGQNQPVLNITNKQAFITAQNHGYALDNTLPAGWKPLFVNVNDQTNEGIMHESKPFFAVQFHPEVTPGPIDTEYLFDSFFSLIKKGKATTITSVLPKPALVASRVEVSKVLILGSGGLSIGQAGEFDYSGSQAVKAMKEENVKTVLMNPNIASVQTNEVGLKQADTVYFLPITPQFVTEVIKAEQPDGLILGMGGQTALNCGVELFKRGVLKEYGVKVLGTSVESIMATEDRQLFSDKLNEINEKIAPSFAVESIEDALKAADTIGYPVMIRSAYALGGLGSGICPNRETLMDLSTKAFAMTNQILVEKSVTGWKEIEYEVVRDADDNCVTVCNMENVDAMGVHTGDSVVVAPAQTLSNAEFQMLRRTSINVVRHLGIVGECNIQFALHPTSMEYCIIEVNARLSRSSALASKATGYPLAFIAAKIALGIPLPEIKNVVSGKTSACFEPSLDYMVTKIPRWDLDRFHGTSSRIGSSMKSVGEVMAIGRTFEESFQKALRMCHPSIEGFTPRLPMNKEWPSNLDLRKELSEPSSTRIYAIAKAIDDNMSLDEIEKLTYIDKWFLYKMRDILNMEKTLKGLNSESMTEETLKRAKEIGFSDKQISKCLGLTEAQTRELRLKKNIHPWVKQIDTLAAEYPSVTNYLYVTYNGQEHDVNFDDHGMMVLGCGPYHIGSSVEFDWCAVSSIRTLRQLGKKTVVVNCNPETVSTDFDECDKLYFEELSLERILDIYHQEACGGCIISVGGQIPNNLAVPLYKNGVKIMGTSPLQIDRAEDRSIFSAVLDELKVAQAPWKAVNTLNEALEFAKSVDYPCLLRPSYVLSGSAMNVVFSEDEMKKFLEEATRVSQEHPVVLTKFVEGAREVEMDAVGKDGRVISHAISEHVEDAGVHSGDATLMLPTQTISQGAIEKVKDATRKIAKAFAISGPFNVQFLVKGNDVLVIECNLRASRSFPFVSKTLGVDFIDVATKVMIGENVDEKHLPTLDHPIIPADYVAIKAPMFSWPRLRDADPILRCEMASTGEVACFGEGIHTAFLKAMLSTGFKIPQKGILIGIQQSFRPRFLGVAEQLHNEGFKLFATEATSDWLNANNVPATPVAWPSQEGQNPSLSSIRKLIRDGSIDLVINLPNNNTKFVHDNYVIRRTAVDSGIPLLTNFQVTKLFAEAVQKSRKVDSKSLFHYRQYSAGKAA
Description: ADP-Glo endpoint assay measuring the ATPase activity of CPS1. To be noted: geometric mean of a minimum of two values; 50 nM CPS1, 10 μM ATP, 0.2 mM NAG, 60 min at room temperature; read-out: ADPGlo IC50. The class given is biochemical. The procedure:
CPS1 was expressed and purified from SF21 insect cells. The full length, human CPS1 gene was cloned into pFastBac HTA and baculovirus was generated using the Bac-to-bac expression system from Invitrogen. P3 virus was used to infect SF21 insect cells at a density of 1.5E6 cells/mL at an MOI of 2. Cells were harvested by centrifugation after 60 hrs and the cell pellet resuspended in lysis buffer (50 mM glycyl glycine pH 7.4, 20 mM KCl, 1 mM TCEP, 10% glycerol and 20 mM imidazole with Roche protease inhibitor tablet) before being lysed with 40 strokes of a Dounce homogenizer on ice. The insoluble fraction of the lysate was then cleared by centrifugation at 30,000 rpm for 30 min. 40 mL of supernatant was mixed with 2 mL of Ni NTA beads for 45 min at 4° C. in a 50 mL conical tube.
The beads were washed with 40 mL of wash buffer (50 mM glycyl glycine pH 7.4, 500 mM NaCl, 1 mM TCEP, 10% glycerol and 50 mM imidazole) by centrifugation and resuspension of the beads three times. Bound CPS1 protein was eluted in 6 mL of elution buffer (50 mM glycyl glycine pH 7.4, 500 mM NaCl, 1 mM TCEP, 10% glycerol and 250 mM imidazole) three times. Elution fractions were combined and concentrated using an Amicon Ultra centrifugation filter with a 10,000 molecular weight cut off. Imidazole was removed by repeated concentration and resuspension in storage buffer in the filter device (50 mM glycyl glycine pH 7.4, 500 mM NaCl, 1 mM TCEP and 20% glycerol). CPS1 was concentrated to a final concentration of ˜3 mg/mL before being aliquoted, flash frozen in liquid nitrogen and stored at −80° C.
CPS1 activity was measured and compounds profiled in an endpoint assay measuring the ATPase activity of CPS1 using the ADP-Glo kit from Promega. 50 nM CPS1 was incubated alone or with varying amounts of tested compound from DMSO stocks in assay buffer (50 mM HEPES pH 7.0, 12.5 mM KHCO3, 1.5 mM (NH4)2SO3, 5 mM MgCl2, 50 mM KCl, 1 mM TCEP, 0.01% TritonX 100, 0.0025% BSA and 0.2 mM NAG) for 20 min in a 3 μL volume in a 384-well plate (Corning Cat#3820). The final concentration of DMSO was 0.04%. The reaction was initiated by the addition of 10 μM ATP, bringing the final volume to 6 μL. After 60 min at room temperature, the reaction was terminated with 3 μL ADP-Glo reagent and incubated at room temperature for 30 min. 3 μL of kinase detection reagent was then added and luminescent signal measured on an Envision plate reader after 30 min.

On to `COc1ccc(C(=O)N2[C@H](C)CN(C(=O)c3ccc(OC(F)(F)F)cc3F)C[C@H]2C)c(F)c1` [Compound 1, ((2R,6R)-4-(2-Fluoro-4-(trifluoromethoxy)benzoyl)-2,6-dimethylpiperazin-1-yl)(2-fluoro-4-methoxyphenyl)methanone], for which the IC50 was found to be 672 nM.

As to `COc1ccc(C(=O)N2[C@H](C)CN(C(=O)c3ccc(OC)c(F)c3F)C[C@H]2C)c(F)c1` [Compound 2, ((2R,6R)-4-(2,3-Difluoro-4-methoxybenzoyl)-2,6-dimethylpiperazin-1-yl)(2-fluoro-4-methoxyphenyl)methanone], the IC50 came out at 427 nM.

With `COc1ccc(C(=O)N2[C@H](C)CN(C(=O)c3ccc4cc[nH]c4c3)C[C@H]2C)c(F)c1` [Compound 3, ((2R,6R)-4-(1H-Indole-6-carbonyl)-2,6-dimethylpiperazin-1-yl)(2-fluoro-4-methoxyphenyl)methanone], the IC50 came out at 127 nM.

For `COc1ccc(C(=O)N2[C@H](C)CN(C(=O)c3ccc(OC)c(F)c3)C[C@H]2C)c(F)c1` [Compound 4, ((2R,6R)-4-(3-Fluoro-4-methoxybenzoyl)-2,6-dimethylpiperazin-1-yl)(2-fluoro-4-methoxyphenyl)methanone], the IC50 amounted to 545 nM.

Turning to `CCOc1ccc(C(=O)N2C[C@@H](C)N(C(=O)c3ccc(OC)cc3F)[C@H](C)C2)c(F)c1` [Compound 5, ((2R,6R)-4-(4-Ethoxy-2-fluorobenzoyl)-2,6-dimethylpiperazin-1-yl)(2-fluoro-4-methoxyphenyl)methanone], the IC50 is 139 nM.

As to `COc1ccc(C(=O)N2[C@H](C)CN(C(=O)c3ccc4c(c3)N(C)CC4)C[C@H]2C)c(F)c1` [Compound 6, ((2R,6R)-2,6-Dimethyl-4-(1-methylindoline-6-carbonyl)piperazin-1-yl)(2-fluoro-4-methoxyphenyl)methanone], the IC50 came to 7670 nM.

With `COc1ccc(C(=O)N2[C@H](C)CN(C(=O)c3ccc4cc(C)[nH]c4c3)C[C@H]2C)c(F)c1` [Compound 7, ((2R,6R)-2,6-Dimethyl-4-(2-methyl-1H-indole-6-carbonyl)piperazin-1-yl)(2-fluoro-4-methoxyphenyl)methanone], the IC50 was 171 nM.

For the compound `COc1ccc(C(=O)N2[C@H](C)CN(C(=O)c3ccc(NC(C)=O)cc3F)C[C@H]2C)c(F)c1` [Compound 8, N-(3-Fluoro-4-((3R,5R)-4-(2-fluoro-4-methoxybenzoyl)-3,5-dimethylpiperazine-1-carbonyl)phenyl)acetamide], the IC50 worked out at 2780 nM.

Regarding `COc1ccc(C(=O)N2[C@H](C)CN(C(=O)c3ccc(OC(F)F)cc3F)C[C@H]2C)c(F)c1` [Compound 9, ((2R,6R)-4-(4-(Difluoromethoxy)-2-fluorobenzoyl)-2,6-dimethylpiperazin-1-yl)(2-fluoro-4-methoxyphenyl)methanone], the IC50 is 190 nM.

Take `COc1ccc(C(=O)N2[C@H](C)CN(C(=O)c3cc(F)c(OC)cc3F)C[C@H]2C)c(F)c1` [Compound 10, ((2R,6R)-4-(2,5-Difluoro-4-methoxybenzoyl)-2,6-dimethylpiperazin-1-yl)(2-fluoro-4-methoxyphenyl)methanone]: the IC50 was determined as 710 nM.

On to `COc1ccc(C(=O)N2[C@H](C)CN(C(=O)c3ccc(OC)cc3Cl)C[C@H]2C)c(F)c1` [Compound 11, ((2R,6R)-4-(2-Chloro-4-methoxybenzoyl)-2,6-dimethylpiperazin-1-yl)(2-fluoro-4-methoxyphenyl)methanone], for which the IC50 turned out to be 2810 nM.

With `COc1ccc(C(=O)N2[C@H](C)CN(C(=O)c3ccc(F)cc3F)C[C@H]2C)c(F)c1` [Compound 12, ((2R,6R)-4-(2,4-Difluorobenzoyl)-2,6-dimethylpiperazin-1-yl)(2-fluoro-4-methoxyphenyl)methanone], the IC50 was determined as 2590 nM.

In the case of `COc1ccc(C(=O)N2[C@H](C)CN(C(=O)c3ccc4c[nH]nc4c3)C[C@H]2C)c(F)c1` [Compound 13, ((2R,6R)-4-(2H-Indazole-6-carbonyl)-2,6-dimethylpiperazin-1-yl)(2-fluoro-4-methoxyphenyl)methanone], the IC50 was determined as 711 nM.

For `COc1ccc(C(=O)N2[C@H](C)CN(C(=O)c3ccc(C)cc3F)C[C@H]2C)c(F)c1` [Compound 14, ((3R,5R)-4-(2-Fluoro-4-methoxybenzoyl)-3,5-dimethylpiperazin-1-yl)(2-fluoro-4-methylphenyl)methanone], the IC50 came out at 2200 nM.

On to `COc1ccc(C(=O)N2[C@H](C)CN(C(=O)c3c(F)cc(OC)cc3F)C[C@H]2C)c(F)c1` [Compound 15, ((2R,6R)-4-(2,6-Difluoro-4-methoxybenzoyl)-2,6-dimethylpiperazin-1-yl)(2-fluoro-4-methoxyphenyl)methanone], for which the IC50 is 420 nM.

With `COc1ccc(C(=O)N2[C@H](C)CN(C(=O)c3c(F)cc(SC)cc3F)C[C@H]2C)c(F)c1` [Compound 16, ((2R,6R)-4-(2,6-Difluoro-4-(methylthio)benzoyl)-2,6-dimethylpiperazin-1-yl)(2-fluoro-4-methoxyphenyl)methanone], the IC50 came out at 552 nM.

Turning to `COc1ccc(C(=O)N2[C@H](C)CN(C(=O)c3cc(Cl)c4cc[nH]c4c3)C[C@H]2C)c(F)c1` [Compound 17, (4-Chloro-1H-indol-6-yl)((3R,5R)-4-(2-fluoro-4-methoxybenzoyl)-3,5-dimethylpiperazin-1-yl)methanone], the IC50 worked out at 526 nM.

Take `COc1ccc(C(=O)N2[C@H](C)CN(C(=O)c3ccc4c(c3)CCCO4)C[C@H]2C)c(F)c1` [Compound 18, Chroman-6-yl((3R,5R)-4-(2-fluoro-4-methoxybenzoyl)-3,5-dimethylpiperazin-1-yl)methanone]: the half-maximal inhibitory concentration (IC50) is 5870 nM.

`COc1ccc(C(=O)N2[C@H](C)CN(C(=O)c3ccc4cc[nH]c4n3)C[C@H]2C)c(F)c1` [Compound 19, ((2R,6R)-2,6-Dimethyl-4-(1H-pyrrolo[2,3-b]pyridine-6-carbonyl)piperazin-1-yl)(2-fluoro-4-methoxyphenyl)methanone]: the IC50 is 3280 nM.
